Measurements: publication PMC6232958 (Molecular Biology of the Cell, 2018)

Tested on: CRM1-mediated nuclear export of EYFP2-SV40NLS-NES reporter in HeLa cells
Test: Inhibition of reporter nuclear export by cotransfected RFP-NES or by LMB
Type: cell-based
Conditions: HeLa cells expressing EYFP2-SV40NLS-PKI NES treated with LMB (5 nM, 16-18 h)

SMILES: CCC(=C/[C@H](C)C/C=C/C(C)=C/[C@@H](C)C(=O)[C@@H](C)[C@H](O)[C@@H](C)C/C(C)=C/C(=O)O)/C=C/[C@@H]1OC(=O)C=C[C@@H]1C [leptomycin B]
- decrease of nuclear export of PKI NES: 92%
